Test results: patent US20120065210A1, “SUBSTITUTED HEXAHYDROPYRROLO[1,2-C]IMIDAZOLONES” (priority 2010, published 2012)

These compounds were tested against interaction between p53 and MDM2 proteins (recombinant GST-tagged MDM2, p53 peptide) (Homo sapiens, UniProt Q00987) (assay: HTRF assay of inhibition of the p53-MDM2 interaction (GST-MDM2 / biotinylated p53 peptide)). Details: bsa: 0.02%.
Assay type: binding
Protocol: The ability of the compounds to inhibit the interaction between p53 and MDM2 proteins was measured by an HTRF (homogeneous time-resolved fluorescence) assay in which recombinant GST-tagged MDM2 binds to a peptide that resembles the MDM2-interacting region of p53. Binding of GST-MDM2 protein and p53-peptide (biotinylated on its N-terminal end) is registered by the FRET (fluorescence resonance energy transfer) between Europium (Eu)-labeled anti-GST antibody and streptavidin-conjugated Allophycocyanin (APC).
Add 10 uL diluted compounds (1:5 dilution in reaction buffer) to each well, mix by shaking Add 20 uL biotinylated p53 peptide (180 nM working solution) in reaction buffer to each well and mix on shaker. Incubate at 37° C. for 1 h. Add 20 uL streptavidin-APC and Eu-anti-GST antibody mixture (6 nM Eu-anti-GST and 60 nM streptavidin-APC working solution) in TBS buffer with 0.2% BSA, shake at room temperature for 30 minutes and read using a TRF-capable plate reader at
665 and 615 nm (Victor 5, Perkin ElmerWallac), If not specified, the reagents were purchased from Sigma Chemical Co.

Chain of interaction between p53 and MDM2 proteins (recombinant GST-tagged MDM2, p53 peptide) (Q00987 whole entry): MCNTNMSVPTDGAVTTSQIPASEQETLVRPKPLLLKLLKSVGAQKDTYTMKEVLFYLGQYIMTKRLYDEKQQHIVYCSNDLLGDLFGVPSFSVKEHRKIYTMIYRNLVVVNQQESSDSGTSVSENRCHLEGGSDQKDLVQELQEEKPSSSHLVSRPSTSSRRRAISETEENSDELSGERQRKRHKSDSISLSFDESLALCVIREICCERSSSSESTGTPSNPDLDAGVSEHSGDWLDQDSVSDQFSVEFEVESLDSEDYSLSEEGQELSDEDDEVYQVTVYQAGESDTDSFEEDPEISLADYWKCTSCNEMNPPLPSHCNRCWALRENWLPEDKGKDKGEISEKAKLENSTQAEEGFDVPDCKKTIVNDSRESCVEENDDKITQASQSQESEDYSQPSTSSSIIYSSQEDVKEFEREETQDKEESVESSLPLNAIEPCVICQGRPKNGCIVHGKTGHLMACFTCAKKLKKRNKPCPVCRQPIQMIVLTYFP

Row | IC50 [nM] | SMILES
1 | 10 | CC(C)(C)C[C@@H]1N2CN(CC(=O)O)C(=O)[C@H]2[C@H](c2cccc(Cl)c2F)[C@@]1(C#N)c1ccc(Cl)cc1F [Example 4, [(5S,6R,7S,7aR)-7-(3-chloro-2-fluoro-phenyl)-6-(4-chloro-2-fluoro-phenyl)-6-cyano-5-(2,2-dimethyl-propyl)-1-oxo-tetrahydro-pyrrolo[1,2-c]imidazol-2-yl]-acetic acid]
2 | 15 | CC(C)(C)C[C@@H]1N2[C@H](CC3CCCCC3)N(c3ccc(C(=O)O)cc3)C(=O)[C@H]2[C@H](c2cccc(Cl)c2F)[C@@]1(C#N)c1ccc(Cl)cc1F (racemic) [Example 35, rac-4-[(3S,5S,6R,7S,7aR)-7-(3-chloro-2-fluoro-phenyl)-6-(4-chloro-2-fluoro-phenyl)-6-cyano-3-cyclohexylmethyl-5-(2,2-dimethyl-propyl)-1-oxo-tetrahydro-pyrrolo[1,2-c]imidazol-2-yl]-benzoic acid]
3 | 21 | CC(C)(C)C[C@@H]1N2CN(c3ccc(C(=O)O)c(C(F)(F)F)c3)C(=O)[C@H]2[C@H](c2cccc(Cl)c2F)[C@@]1(C#N)c1ccc(Cl)cc1F [Example 7, 4-[(5S,6R,7S,7aR)-7-(3-chloro-2-fluoro-phenyl)-6-(4-chloro-2-fluoro-phenyl)-6-cyano-5-(2,2-dimethyl-propyl)-1-oxo-tetrahydro-pyrrolo[1,2-c]imidazol-2-yl]-2-trifluoromethyl-benzoic acid]
4 | 8 | CC(C)(C)C[C@@H]1N2CN(c3ccc(C(=O)O)cc3)C(=O)[C@H]2[C@H](c2cccc(Cl)c2F)[C@@]1(C#N)c1ccc(Cl)cc1F [Example 2, 4-[(5S,6R,7S,7aR)-7-(3-chloro-2-fluoro-phenyl)-6-(4-chloro-2-fluoro-phenyl)-6-cyano-5-(2,2-dimethyl-propyl)-1-oxo-tetrahydro-pyrrolo[1,2-c]imidazol-2-yl]-benzoic acid]
5 | 13 | CC(C)(C)C[C@@H]1N2CN(c3ccc(C(=O)O)cc3O)C(=O)[C@H]2[C@H](c2cccc(Cl)c2F)[C@@]1(C#N)c1ccc(Cl)cc1F [Example 6, 4-[(5S,6R,7S,7aR)-7-(3-chloro-2-fluoro-phenyl)-6-(4-chloro-2-fluoro-phenyl)-6-cyano-5-(2,2-dimethyl-propyl)-1-oxo-tetrahydro-pyrrolo[1,2-c]imidazol-2-yl]-3-hydroxy-benzoic acid]
6 | 8 | COc1cc(N2CN3[C@@H](CC(C)(C)C)[C@](C#N)(c4ccc(Cl)cc4F)[C@@H](c4cccc(Cl)c4F)[C@@H]3C2=O)ccc1C(=O)O [Example 1, 4-[(5S,6R,7S,7aR)-7-(3-chloro-2-fluoro-phenyl)-6-(4-chloro-2-fluoro-phenyl)-6-cyano-5-(2,2-dimethyl-propyl)-1-oxo-tetrahydro-pyrrolo[1,2-c]imidazol-2-yl]-2-methoxy-benzoic acid]
7 | 9 | C=CCC[C@@H]1N(c2ccc(C(=O)O)c(OC)c2)C(=O)[C@H]2[C@H](c3cccc(Cl)c3F)[C@@](C#N)(c3ccc(Cl)cc3F)[C@H](CC(C)(C)C)N12 [Example 41, 4-[(3S,5S,6R,7S,7aR)-3-but-3-enyl-7-(3-chloro-2-fluoro-phenyl)-6-(4-chloro-2-fluoro-phenyl)-6-cyano-5-(2,2-dimethyl-propyl)-1-oxo-tetrahydro-pyrrolo[1,2-c]imidazol-2-yl]-2-methoxy-benzoic acid]
8 | 13 | COc1cc(C(=O)O)ccc1N1CN2[C@@H](CC(C)(C)C)[C@](C#N)(c3ccc(Cl)cc3F)[C@@H](c3cccc(Cl)c3F)[C@@H]2C1=O [Example 3, 4-[(5S,6R,7S,7aR)-7-(3-chloro-2-fluoro-phenyl)-6-(4-chloro-2-fluoro-phenyl)-6-cyano-5-(2,2-dimethyl-propyl)-1-oxo-tetrahydro-pyrrolo[1,2-c]imidazol-2-yl]-3-methoxy-benzoic acid]
